Reference: PMC7714071, “Interaction of amyloid beta with humanin and acetylcholinesterase is modulated by ATP” (FEBS Open Bio, 2020)

System: Aβ from H1299 cell-conditioned media
Assay: ELISA, HN (endogenous and exogenously added) and AChE bound to Aβ from H1299 media on 82E1 antibody
Format: binding, human
Conditions: H1299 media, Fig. 6B
Procedure: Human NSCLC cell lines, A549 (ATCC CCL‐185) and H1299 (ATCC CRL‐5803), were purchased from the American Type Culture Collection (ATCC, Manassas, VA, USA). Cells were seeded as we reported earlier in 5 mL HyClone Dulbecco's modified Eagle's medium/nutrient mixture F‐12 (DMEM/F12) (GE Healthcare Life Sciences, Pittsburgh, PA, USA), supplemented with 10% Fetalgro bovine growth serum (FBS; RMBIO, Missoula, MT, USA), 50 U·mL^−1 penicillin, and […] streptomycin (Invitrogen, Life Technologies, Carlsbad, CA, USA) in 25‐cm^2 tissue culture flasks, and allowed to grow overnight in an incubator at 37 °C, 95% humidity, and 5% CO2. The cells were counted after trypan blue staining, with a hemocytometer.
ELISAs were carried out as we previously reported. Nunc MaxiSorp 96‐well flat bottom plate (Thermo Fisher) wells were coated with samples as indicated. The plates were incubated overnight at 4 °C on a shaker to allow binding of the samples to the plate wells. After the incubation, the wells were washed 4× with TBST, filled with 400 µL blocking buffer (110 mM KCl, 5 mM NaHCO3, 5 mM MgCl2, 1 mM EGTA, 0.1 mM CaCl2, 20 mM HEPES, 1% BSA, pH 7.4), and incubated with shaking overnight at 4 °C. The wells were then washed 4× with TBST, and 100 µL of sample at the desired concentration was added to each well and incubated with shaking overnight at 4 °C. TBST was then used to wash the wells 4× before proceeding in one of two ways: (a) biotinylated samples were analyzed by adding 100 µL streptavidin–HRP conjugate in TBST (1 : 2500 dilution) to the samples followed by incubation for 3 h at RT on a shaker, or (b) samples without biotin were analyzed by adding 100 µL TBST containing the primary antibody as per the manufacturer's recommendation, incubating for 3 h at RT on a shaker, followed by washing the wells 4× with TBST. […] The reaction was stopped with 100 µL 2 M H2SO4 after incubating at RT for 0.5–15 min, resulting in a yellow color change, measured by absorbance at 450 nm. […] Before analysis, the OD from the data was corrected for nonspecific binding by subtracting the mean background absorbance for the negative controls. […] Statistical analysis was determined by the […] […] Data were expressed as the mean ± SD. […]
Anti‐Aβ‐specific antibodies (82E1) were added (1 : 1000 dilution) to ELISA plate wells (Fig. 6). The wells were blocked, and then, 300 µL of the conditioned media (0.5 µg·µL^−1) of A549 or H1299 cells, 72 h postserum starvation, was added in the absence or presence of increasing HN concentrations, and the HN and AChE bound were detected using the corresponding specific primary antibodies. Fold change relative to controls that included all components but without the primary antibodies was calculated and fit with a nonlinear regression curve using the […] […]

| Compound | effect of ATP on binding of exogenously added HN to Aβ (0.1 mM, 1 mM ATP (more pronounced at 1 mM)) | effect of ATP on binding of endogenous HN to Aβ (increasing ATP (0.1 mM, 1 mM; more pronounced at 1 mM), 82E1) | HN concentration at which signal begins to level off (exogenous HN) | binding of exogenous HN to Aβ (increasing exogenous HN, 82E1) |
| --- | --- | --- | --- | --- |
| Nc1ncnc2c1ncn2[C@@H]1O[C@H](COP(=O)(O)OP(=O)(O)OP(=O)(O)O)[C@@H](O)[C@H]1O [ATP, Adenosine triphosphate] | decreased binding of exogenously added HN | increased binding of endogenous HN |  |  |
| Humanin [HN] |  |  | around 50 nM | increased binding to Aβ |
